This note sets out measurements from patent US20140296212A1, “SUBSTITUTED PHENOXYPROPYLCYCLOAMINE DERIVATIVES AS HISTAMINE-3 (H3) RECEPTOR LIGANDS” (CEPHALON, INC., priority 2009, published 2014).

The target of data set [1] is T1, rat histamine H3 receptor (Rattus norvegicus, UniProt Q9QYN8).
T1 construct: encoding the entire 445-amino-acid rat histamine H3 receptor; expressed in transfected cells
Put plainly: Rat H3 radioligand binding ([3H]-N-alpha-methylhistamine, SPA). The note with it: membranes of CHO-A3 cells expressing rat H3; [3H]-N-alpha-methylhistamine; read-out: Rat H3 Ki. The essentials: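 Membranes from CHO-A3 cells stably expressing full-length rat H3 receptor (445 aa) incubated with ~1 nM [3H]-N-alpha-methylhistamine and compound (0.01 nM–30 μM) in 50 mM Tris HCl pH 7.4, 5 mM MgCl2, 0.1% BSA, 4 h, room temperature; SPA bead read-out. Non-specific binding defined with 10 μM clobenpropit.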

The next data set addresses T2, human H3 receptor (Homo sapiens, UniProt Q9Y5N1).
T2 construct: expressed in transfected cells
Put plainly: Human H3 radioligand binding ([3H]-N-alpha-methylhistamine, SPA). The following applies: membranes of CHO cells expressing human H3. Summed up:
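Membranes from H3-expressing cells (10 μg protein/well) in 50 mM Tris HCl pH 7.4, 5 mM MgCl2, 0.1% BSA with ~1 nM [3H]-N-alpha-methylhistamine and compound (0.01 nM–30 μM), SPA beads, 4 h, room temperature, dark. Non-specific binding defined with 10 μM clobenpropit; bound radioligand read by scintillation counting.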

SMILES strings stand for the structures.

T2 sequence (Q9Y5N1 whole entry): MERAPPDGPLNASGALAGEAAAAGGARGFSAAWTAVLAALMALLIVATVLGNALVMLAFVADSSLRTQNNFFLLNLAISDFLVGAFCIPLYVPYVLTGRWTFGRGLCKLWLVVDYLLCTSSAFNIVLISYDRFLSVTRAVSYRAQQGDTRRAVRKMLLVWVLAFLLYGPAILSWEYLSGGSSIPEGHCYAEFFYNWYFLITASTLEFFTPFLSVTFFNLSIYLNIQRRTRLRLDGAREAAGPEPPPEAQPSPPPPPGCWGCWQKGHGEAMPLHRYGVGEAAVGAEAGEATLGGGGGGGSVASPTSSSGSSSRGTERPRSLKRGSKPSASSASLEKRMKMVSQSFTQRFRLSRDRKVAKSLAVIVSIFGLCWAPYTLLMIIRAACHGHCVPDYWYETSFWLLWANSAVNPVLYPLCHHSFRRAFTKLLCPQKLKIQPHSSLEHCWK
T1 sequence (Q9QYN8 whole entry): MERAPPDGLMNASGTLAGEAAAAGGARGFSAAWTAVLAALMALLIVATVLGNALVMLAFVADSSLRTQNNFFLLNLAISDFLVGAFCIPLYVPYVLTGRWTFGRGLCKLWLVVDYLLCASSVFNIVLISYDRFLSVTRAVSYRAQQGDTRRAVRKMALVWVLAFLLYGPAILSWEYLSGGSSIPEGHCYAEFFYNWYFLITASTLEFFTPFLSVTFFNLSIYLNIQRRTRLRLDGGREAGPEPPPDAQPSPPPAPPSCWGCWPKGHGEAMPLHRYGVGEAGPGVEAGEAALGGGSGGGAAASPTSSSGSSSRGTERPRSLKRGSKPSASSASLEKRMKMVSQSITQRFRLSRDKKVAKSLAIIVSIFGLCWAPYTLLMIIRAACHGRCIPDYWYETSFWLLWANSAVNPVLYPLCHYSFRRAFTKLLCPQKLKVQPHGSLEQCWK

By Ki is commonly meant the dissociation constant of the complex between target and ligand, obtained from inhibition or displacement. A word on the melting point: it is the temperature of the solid-liquid transition. `C[C@@H]1CCCN1CCCOc1ccc(C(=O)CN2CCCCc3ccccc32)cc1` [Example 114, 1-{4-[3-((R)-2-Methyl-pyrrolidin-1-yl)-propoxy]-phenyl}-2-(2,3,4,5-tetrahydro-benzo[b]azepin-1-yl)-ethanone] showed a melting point of 90 to 96 °C. Besides, in data set [1], the Ki lay in the range of 0.1 to 100 nM. Moreover, the inhibitory constant (Ki) on human H3 receptor was 0.1 to 100 nM.
`C[C@@H]1CCCN1CCCOc1c(Cl)cc(C(=O)CN2CCC(F)(F)CC2)cc1Cl` [Example 98, 1-{3,5-Dichloro-4-[3-((R)-2-methyl-pyrrolidin-1-yl)-propoxy]-phenyl}-2-(4,4-difluoro-piperidin-1-yl)-ethanone] gave a melting point of 102 °C. In addition, in data set [1], the Ki was greater than 1000 nM. In addition, the inhibitory constant (Ki) at human H3 receptor fell in the range of 0.1 to 100 nM.
The like results for `COC[C@H]1CCCN1CCCOc1ccc(C(=O)CN2CCOCC2)cc1` [Example 71, 1-{4-[3-((R)-2-Methoxymethyl-pyrrolidin-1-yl)-propoxy]-phenyl}-2-morpholin-4-yl-ethanone] were, in that order, > 200 °C (dec.), greater than 1000 nM and greater than 1000 nM.
In turn, `Cc1cc(C(=O)CN2CCN(C(=O)c3ccccc3)CC2)cc(C)c1OCCCN1CCC[C@H]1C` [Example 106, 2-(4-Benzoyl-piperazin-1-yl)-1-{3,5-dimethyl-4-[3-((R)-2-methyl-pyrrolidin-1-yl)-propoxy]-phenyl}-ethanone] registered a melting point of 110 to 120 °C. In addition, the inhibitory constant (Ki) in data set [1] fell in the range of 101 to 500 nM. Further, the Ki at human H3 receptor lay within 0.1 to 100 nM.
The like results for `C[C@@H]1CCCN1CCCOc1ccc(C(=O)CN2CCN(C(=O)c3ccc(F)cc3F)CC2)cc1` [Example 126, 2-[4-(2,4-Difluoro-benzoyl)-piperazin-1-yl]-1-{4-[3-((R)-2-methyl-pyrrolidin-1-yl)-propoxy]-phenyl}-ethanone] were, in that order, 115 to 117 °C, 0.1 to 100 nM and 0.1 to 100 nM.
The like results for `C[C@@H]1CCCN1CCCOc1ccc(C(=O)CN2CCN(C(=O)C3CCCCC3)CC2)cc1` [Example 93, 2-(4-Cyclohexanecarbonyl-piperazin-1-yl)-1-{4-[3-((R)-2-methyl-pyrrolidin-1-yl)-propoxy]-phenyl}-ethanone] were, in that order, 230 to 232 °C, 0.1 to 100 nM and 0.1 to 100 nM.
In turn, `CC(=O)N1CCN(CC(=O)c2ccc(OCCCN3CCC[C@H]3C)cc2)CC1` [Example 63, 2-(4-Acetyl-piperazin-1-yl)-1-{4-[3-((R)-2-methyl-pyrrolidin-1-yl)-propoxy]-phenyl}-ethanone] yielded a melting point of 125 to 133 °C. Also, the inhibitory constant (Ki) in data set [1] fell in the range of 0.1 to 100 nM. Further, the Ki on human H3 receptor lay within 0.1 to 100 nM.
Take `C[C@@H]1CCCN1CCCOc1ccc(C(=O)CN2CCN(C(=O)Oc3ccccc3)CC2)cc1` [Example 128, 4-(2-{4-[3-((R)-2-Methyl-pyrrolidin-1-yl)-propoxy]-phenyl}-2-oxo-ethyl)-piperazine-1-carboxylic acid phenyl ester]: the melting point was in the range of 194 to 199 °C. Further, the inhibitory constant (Ki) in data set [1] lay in the range of 0.1 to 100 nM. The Ki on human H3 receptor was in the range of 0.1 to 100 nM.
`C[C@@H]1CCCN1CCCOc1ccc(C(=O)CN2CCN(C(=O)c3cccs3)CC2)cc1` [Example 80, 1-{4-[3-((R)-2-Methyl-pyrrolidin-1-yl)-propoxy]-phenyl}-2-[4-(thiophene-2-carbonyl)-piperazin-1-yl]-ethanone] showed a melting point of 152 to 156 °C. In addition, the inhibition constant (Ki) in data set [1] lay in the range of 0.1 to 100 nM. This compound showed a Ki at human H3 receptor of 0.1 to 100 nM.
Compound `COC(=O)N1CCN(CC(=O)c2ccc(OCCCN3CCC[C@H]3C)c(F)c2)CC1` [Example 127, 4-(2-{3-Fluoro-4-[3-((R)-2-methyl-pyrrolidin-1-yl)-propoxy]-phenyl}-2-oxo-ethyl)-piperazine-1-carboxylic acid methyl ester] returned a melting point of 236 °C. Further, the Ki in data set [1] lay within 0.1 to 100 nM. Moreover, the Ki on human H3 receptor lay in the range of 0.1 to 100 nM.
Regarding `O=C(CN1CCOCC1)c1ccc(OCCCN2CCCCC2)cc1` [Example 78, 2-Morpholin-4-yl-1-[4-(3-piperidin-1-yl-propoxy)-phenyl]-ethanone], the melting point is 236 to 243 °C. The inhibitory constant (Ki) in data set [1] lay in the range of 101 to 500 nM. The same compound registered a Ki at human H3 receptor of 0.1 to 100 nM.
